From patent US20230212246A1, “TGF-B AS A THERAPEUTIC TARGET FOR INTRACRANIAL ANEURYSM” (THE BOARD OF REGENTS OF THE UNIVERSITY OF TEXAS SYSTEM, priority 2022, published 2023)

Key:
p-Smad2 [1] = assay: TGFβ1 time course of p-Smad2 (Western blot) in HEK293T cells; assay type: cell-based; conditions: HEK293T cells treated with TGFβ1 at different time points, FIG. 4a
Description: HEK293T cells were maintained in DMEM medium (Corning, 10-013-CV) containing 10% fetal bovine serum (Invitrogen, 10082147), 100 IU penicillin, and 100 μg/ml streptomycin. Transfections of small interfering RNAs and plasmid DNA were performed using lipofectamine 2000 (Life Technologies, 11668027) according to the manufacturer's instructions. Alternatively, for cells such as endothelial cells that are hard to transfect, we will utilize lentiviral system to generate stable cell lines.
(§1) Cells were lysed in 1% Triton lysis buffer and sonicated briefly before centrifuged at 18506 g for 30 min at 4° C. Total cell lysates were added by 2X SDS sample buffer and then subjected to discontinuous SDS-PAGE analysis. Proteins were transferred to nitro-cellulose membranes using a Bio-Rad (Hercules, Calif.) mini transfer apparatus followed by blocking with 5% nonfat milk. Primary antibodies and secondary antibodies were used usually at 1:1000 and 1:10000 dilutions respectively before using an Odyssey system to detect the fluorescence signal.
FIG. 3 is a drawing depicting a representative model of the TGFβ pathway. […] As depicted in FIG. 3, it is possible to monitor the phosphorylation level of Smad2 or Samd3 as a reporter for TGFβ signaling activity. […]

p-Smad2 [2] = assay: TGFβ treatment time course of p-Smad2 in HBMEC; assay type: cell-based, human; conditions: FIG. 5a
Description: as §1
(§2) FIG. 3 is a drawing depicting a representative model of the TGFβ pathway. […] As depicted in FIG. 3, it is possible to monitor the phosphorylation level of Smad2 or Samd3 as a reporter for TGFβ signaling activity.
(§3) To further investigate a potential role for the TGFβ Signaling pathway in the pathology of aneurysms, specifically IA, we also tested TGFβ treatment in different endothelial cells including HBMEC and HUVEC. HBMEC is a primary brain endothelial cells and HUVEC is primary umbilical vein endothelial cells. […] THSD1 knockdown can block TGFβ signaling.

p-Smad2 [3] = assay: TGFβ treatment time course of p-Smad2 in HUVEC; assay type: cell-based, human; conditions: HUVEC (cell line not restated), FIG. 5c
Description: as §1, §2, §3

p-Smad2 [4] = assay: Activin treatment time course of p-Smad2 in HBMEC; assay type: cell-based, human; conditions: HBMEC cells, FIG. 6a
Description: as §1, §2
To evaluate the specificity of the requirement for THSD1 for TGFβ signaling in endothelial cells we also tested Activin treatment. […] FIG. 7 is a schematic illustrating that THSD1 has a thrombospondin domain (TSP1) that interacts with mature TGFβ ligand.

TGFβ1: TGFβ ligand; polypeptide used to treat cells and induce Smad2 phosphorylation
time at which p-Smad2 reaches plateau (p-Smad2 [1]): 60 min | time at which p-Smad2 reaches the maximum level (p-Smad2 [2]): around 40 mins | time at which p-smad2 reaches the highest level (p-Smad2 [3]): around 40 mins

Activin
time at which p-smad2 reaches the highest level (p-Smad2 [4]): around 40 mins
